Results reported in PMC9126795 (eBioMedicine, 2022).

Legend:
[1] = system: patients with HCV and HBV liver cirrhosis; assay: Collagen proportionate area; assay type: in vivo, human; details: baseline vs 12 weeks after PRI-724 administration, 280 mg/m^2/4 h
[2] = system: patients with HCV and HBV liver cirrhosis; assay: Serum ALB, PT and TBIL; assay type: in vivo, human; details: 14 patients

Q: What does the source list for PRI-724?
A: Collagen proportionate area of the whole liver tissue [1]: no statistically significant change was observed; Serum ALB level [2]: improved from baseline at some time after PRI-724 administration; Serum TBIL level [2]: improved from baseline at some time after PRI-724 administration
